The values below come from patent US11442059B2, “Method for treating a chronic itch condition by administering small molecule MrgprX4 antagonists” (The Johns Hopkins University, priority 2017, dated 2022).

pEC50: −log10 of the molar value.

Series [1] deals with MRGPRX4 (Homo sapiens, UniProt Q96LA9). The series is described as follows: Ca2+ imaging / EC50 determination in HEK293 cells expressing MRGPRX4. In kind it is cell-based. Also on record: expressed in transfected cells. On the procedure: Lamotrigine (LTG), allopurinol, carbamazepine and oxcarbazepine (all from Sigma) were prepared fresh on the day of the experiment. These drugs were dissolved into dimethyl sulfoxide (DMSO) first, and then were diluted at least 10000× into calcium imaging buffer before use. The final concentrations of drugs for each experiment were indicated in the corresponding figure legend.
In initial experiments, HEK293 cells were plated on 100 μg/ml poly-D-lysine coated glass cover slips, and transiently transfected with vector containing Mrgprs gene, after 24-48 hours of culture, cells were loaded with Fura 2-acetomethoxy ester calcium indicator (0.5 μM, Molecular Probes) along with pluronic F-127 dispersing agent (0.1%, Molecular Probes) for 30 minutes in the dark at 37° C., then washed with calcium imaging buffer (CIB; NaCl 125 mM, KCl 3 mM, CaCl2 2.5 mM, MgCl2 0.6 mM, HEPES 10 mM, glucose 20 mM, NaHCO3 1.2 mM, sucrose 20 mM, brought to pH 7.4 with NaOH). Drugs were added to Fura 2-loaded cells and intracellular free calcium was measured using 340 nm and 380 nm excitation wavelengths with emission measured at 520 nm with a microscope based imaging system (Nikon Eclipse TE200). Changes in emission fluorescence ratios at 340/380 nm excitation were continuously monitored at 1 second intervals. Later, experiments were performed using Mrgpra1-GFP, Mrgprc11-GFP and MRGPRX4-GFP stable cell lines to confirm the findings obtained from the transiently expressing cells.
Mrgpra1 or both wild-type and mutant MRGPRX4 stably expressed HEK cells were plated overnight in 100 μl culture media on 96-well plates. […] After 1 hour of incubation at 37° C., cells were allowed to recover for 10 minutes in the dark at room temperature prior to performing intracellular calcium mobilization assay in a FLEXSTATION® multi-mode plate reader (Molecular Devices). […] Responses were determined by subtracting the minimum signal (at the basal level before adding the drug) from the maximum signal (obtained after stimulating with the drug). […]

Series [2] deals with 129S1/SvImJ mice. As to the kind of experiment: SJS/TEN mouse model (daily oral gavage of causative drug). The conditions noted are these: for TUNEL-positive dead epithelial cells in paw: LTG oral daily. In kind it is in vivo. On the procedure: Eight-to-ten week old male mice were orally gavaged with either causative drugs (LTG, allopurinol, oxcarbazepine) suspended in saline or saline once daily. The dosage was based on milligrams per kilogram of animal's body weight as indicated (for example, LTG 50 mg kg^−1 body weight). Skin, eyes, and mucosa, survival, body weight, physical and gross appearances (particularly on the eyes, mucosa and skins) were monitored every day.
The animals were deeply anesthetized with pentobarbital and transcardially perfused with 20 ml 0.1 M cold PBS (pH 7.4) followed with 25 ml of cold 4% paraformaldehyde (PFA). Paw skin, eyelid, spleen, lymph nodes were dissected out. postfixed in 4% PFA for more than two hours, and cryoprotected in a 20% followed by 30% sucrose solution for 24 hours each at 4° C. Tissue samples were embedded in the optimal cutting temperature (OCT) and frozen before being serially cut into 20 μm sections and placed onto slides. Hematoxylin and eosin (H&E) staining was performed using standard procedures according to the manufacturer's instruction VITROVIEW™ H&E Stain Kit). To quantify amount of apoptotic cells, terminal deoxynucleotidyl transferase dUTP nick end labeling (TUNEL) assay, a method for detecting DNA fragmentation that results from apoptotic cells by labeling the terminal end of nucleic acids, was performed by following the protocol of Apo-BrdU DNA Fragmentation Assay Kit (Biovision). To estimate the total cell number in tissue, all nuclei were stained with propidium iodide. Digital photographs were captured under confocal fluorescent microscopy at x200 magnification (Zeiss LSM 700). The number of TUNEL-positive nuclei were counted and reported as a percentage over the number of total nuclei observed in the skin's epidermis layer.

Sequence of MRGPRX4 (Q96LA9 whole entry): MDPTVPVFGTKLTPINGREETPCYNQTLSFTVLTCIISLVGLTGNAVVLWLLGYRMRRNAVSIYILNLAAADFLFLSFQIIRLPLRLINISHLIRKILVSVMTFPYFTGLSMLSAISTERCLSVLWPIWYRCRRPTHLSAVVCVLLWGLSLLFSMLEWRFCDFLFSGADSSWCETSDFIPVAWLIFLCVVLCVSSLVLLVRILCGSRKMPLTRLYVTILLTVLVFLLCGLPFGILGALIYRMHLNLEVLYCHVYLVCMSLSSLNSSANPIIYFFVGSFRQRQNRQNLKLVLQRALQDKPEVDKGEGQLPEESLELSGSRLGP

For the compound `Nc1nnc(-c2cccc(Cl)c2Cl)c(N)n1` [LTG, Lamotrigine], the pEC50 in series [1] (HEK293 cells, Ca2+ assay) was approximately 3.70. Besides, in series [1] (Mrgprs individually expressed in HEK293 cells), the “activation of human MRGPRX4 (Ca2+ imaging)” value is “specifically activated”. Moreover, the mortality rate in series [2] (LTG 50 mg kg−1 oral daily, by day 14, WT 129S1/SvImJ mice) amounted to 60%. Besides, the “TUNEL-positive dead epithelial cells in paw” value was 45.99±1.84% in series [2] (day 9, HET mice); 6.10±1.63% in series [2] (day 9, KO mice); 48.74±5.94% in series [2] (day 9, WT mice). In series [2] (day 14 of LTG treatment, KO group), the survival result is given as “no mouse died”. The compound also returned a mice survived in series [2] (day 14 of LTG treatment, WT and HET groups) of 30%.
